Measured values reported in ChEMBL document CHEMBL4477228, “Discovery of 2-((3-cyanopyridin-2-yl)thio)acetamides as human lactate dehydrogenase A inhibitors to reduce the growth of MG-63 osteosarcoma cells: Virtual screening and biological validation” (Bioorg Med Chem Lett, 2016).
Values belong to the compound of their own block, whether it stands above or below them. Calls of active or inactive are those of the source. No cut-off for these calls is given here.

Key:
[1] = biological target: T1, L-lactate dehydrogenase A chain (Homo sapiens, UniProt P00338); experiment: Inhibition of human LDHA assessed as conversion of pyruvate to lactate measuring disappearance of NADH after 10 mins by fluorescence assay
MG-63 [2] = experiment: Cytotoxicity of human MG63 cells assessed as cell growth inhibition after 72 hrs by MTT assay; type: functional, cell-based
[3] = biological target: T1, L-lactate dehydrogenase A chain; experiment: Inhibition of human LDHA in MG63 cells assessed as reduction in lactate formation at 20 uM after 12 hrs; type: cell-based
MG-63 [4] = experiment: Induction of apoptosis in human MG63 cells assessed as viable cells at 2 uM after 12 hrs by Annexin V-FITC/propidium iodide staining based flow cytometry (reference value: 95.8 %); type: functional; conditions: MG-63, 12 h, read-out: Activity
MG-63 [5] = experiment: Induction of apoptosis in human MG63 cells assessed as early apoptotic cells at 2 uM after 12 hrs by Annexin V-FITC/propidium iodide staining based flow cytometry (reference value: 0.4 %); type: functional
MG-63 [6] = experiment: Induction of apoptosis in human MG63 cells assessed as late apoptotic cells at 2 uM after 12 hrs by Annexin V-FITC/propidium iodide staining based flow cytometry (reference value: 3.2 %); type: functional
MG-63 [7] = experiment: Induction of apoptosis in human MG63 cells assessed as necrotic cells at 2 uM after 12 hrs by Annexin V-FITC/propidium iodide staining based flow cytometry (reference value: 0.5 %); type: functional
MG-63 [8] = experiment: Induction of apoptosis in human MG63 cells assessed as viable cells at 5 uM after 12 hrs by Annexin V-FITC/propidium iodide staining based flow cytometry (reference value: 95.8 %); type: functional; conditions: MG-63, 12 h, read-out: Activity
MG-63 [9] = experiment: Induction of apoptosis in human MG63 cells assessed as early apoptotic cells at 5 uM after 12 hrs by Annexin V-FITC/propidium iodide staining based flow cytometry (reference value: 0.4 %); type: functional
MG-63 [10] = experiment: Induction of apoptosis in human MG63 cells assessed as late apoptotic cells at 5 uM after 12 hrs by Annexin V-FITC/propidium iodide staining based flow cytometry (reference value: 3.2 %); type: functional
MG-63 [11] = experiment: Induction of apoptosis in human MG63 cells assessed as necrotic cells at 5 uM after 12 hrs by Annexin V-FITC/propidium iodide staining based flow cytometry (reference value: 0.5 %); type: functional
MG-63 [12] = experiment: Induction of apoptosis in human MG63 cells assessed as viable cells at 10 uM after 12 hrs by Annexin V-FITC/propidium iodide staining based flow cytometry (reference value: 95.8 %); type: functional; conditions: MG-63, 12 h, read-out: Activity
MG-63 [13] = experiment: Induction of apoptosis in human MG63 cells assessed as early apoptotic cells at 10 uM after 12 hrs by Annexin V-FITC/propidium iodide staining based flow cytometry (reference value: 0.4 %); type: functional
MG-63 [14] = experiment: Induction of apoptosis in human MG63 cells assessed as late apoptotic cells at 10 uM after 12 hrs by Annexin V-FITC/propidium iodide staining based flow cytometry (reference value: 3.2 %); type: functional
MG-63 [15] = experiment: Induction of apoptosis in human MG63 cells assessed as necrotic cells at 10 uM after 12 hrs by Annexin V-FITC/propidium iodide staining based flow cytometry (reference value: 0.5 %); type: functional
MG-63 [16] = experiment: Induction of apoptosis in human MG63 cells assessed as viable cells at 10 uM after 6 hrs by Annexin V-FITC/propidium iodide staining based flow cytometry (reference value: 95.8 %); type: functional; conditions: MG-63, 6 h, read-out: Activity
MG-63 [17] = experiment: Induction of apoptosis in human MG63 cells assessed as early apoptotic cells at 10 uM after 6 hrs by Annexin V-FITC/propidium iodide staining based flow cytometry (reference value: 0.4 %); type: functional
MG-63 [18] = experiment: Induction of apoptosis in human MG63 cells assessed as late apoptotic cells at 10 uM after 6 hrs by Annexin V-FITC/propidium iodide staining based flow cytometry (reference value: 3.2 %); type: functional
MG-63 [19] = experiment: Induction of apoptosis in human MG63 cells assessed as necrotic cells at 10 uM after 6 hrs by Annexin V-FITC/propidium iodide staining based flow cytometry (reference value: 0.5 %); type: functional
MG-63 [20] = experiment: Induction of apoptosis in human MG63 cells assessed as viable cells at 10 uM after 24 hrs by Annexin V-FITC/propidium iodide staining based flow cytometry (reference value: 95.8 %); type: functional; conditions: MG-63, 24 h, read-out: Activity
MG-63 [21] = experiment: Induction of apoptosis in human MG63 cells assessed as early apoptotic cells at 10 uM after 24 hrs by Annexin V-FITC/propidium iodide staining based flow cytometry (reference value: 0.4 %); type: functional
MG-63 [22] = experiment: Induction of apoptosis in human MG63 cells assessed as late apoptotic cells at 10 uM after 24 hrs by Annexin V-FITC/propidium iodide staining based flow cytometry (reference value: 3.2 %); type: functional
MG-63 [23] = experiment: Induction of apoptosis in human MG63 cells assessed as necrotic cells at 10 uM after 24 hrs by Annexin V-FITC/propidium iodide staining based flow cytometry (reference value: 0.5 %); type: functional
MG-63 [24] = experiment: Induction of apoptosis in human MG63 cells after 12 hrs by Annexin V-FITC/propidium iodide staining based flow cytometry; type: functional, cell-based
MG-63 [25] = experiment: Induction of apoptosis in human MG63 cells at 10 uM by Annexin V-FITC/propidium iodide staining based flow cytometry; type: functional, cell-based; conditions: TDE = time-dependent effect
[26] = biological target: T1, L-lactate dehydrogenase A chain; experiment: Inhibition of human LDHA in MG63 cells assessed as reduction in lactate formation after 12 hrs; type: cell-based
[27] = Homo sapiens, MG-63, 72 h, read-out: EC50

Compound: COc1ccc(-c2cc(-c3ccc(OC)cc3)c(C#N)c(SCC(=O)Nc3ccc(C)c(C)c3)n2)cc1
IC50 [1]: > 100 µM
EC50 (MG-63 [2]; mg-63): Not Active

Compound: COc1ccc(-c2cc(-c3ccc(OC)cc3)c(C#N)c(SCC(=O)Nc3c(C)cccc3C)n2)cc1
IC50 [1]: 22.5 µM
EC50 (MG-63 [2]; [27]): 35.4 µM

The next compounds have a lower IC50 [1] than those just listed; values first:

IC50 [1]: 7.4 µM
inhibition [3]: Active
Compound: COc1ncc(-c2ccc3c(Nc4cccc(C(=O)O)c4)c(S(N)(=O)=O)cnc3c2)c(OC)n1
EC50 (MG-63 [2]; [27]): 28.4 µM

IC50 [1]: 6.59 µM
Compound: COc1ccc(-c2cc(-c3ccccc3)c(C#N)c(SCC(=O)Nc3cc(C)cc(C)c3)n2)cc1
EC50 (MG-63 [2]; [27]): 5.78 µM

IC50 [1]: 3.4 µM
Compound: Cc1ccc(-c2cc(-c3ccc(F)cc3)nc(SCC(=O)Nc3cccc(C)c3)c2C#N)cc1
EC50 (MG-63 [2]; [27]): 6.72 µM

IC50 [1]: 1.24 µM
inhibition [26]: Dose-dependent effect
Compound: CCc1ccccc1NC(=O)CSc1nc(-c2ccc(OC)cc2)cc(-c2ccc(OC)cc2)c1C#N
EC50 (MG-63 [2]; [27]): 0.98 µM
viability at 2 µM (MG-63 [4]): 91%
Activity (MG-63 [5]): 2%
Activity (MG-63 [6]): 6.5%
Activity (MG-63 [7]): 0.4%
viability at 5 µM (MG-63 [8]): 88.2%
Activity (MG-63 [9]): 0.7%
Activity (MG-63 [10]): 10.3%
Activity (MG-63 [11]): 0.8%
viability at 10 µM (MG-63 [12]): 82.7%
Activity (MG-63 [13]): 2.8%
Activity (MG-63 [14]): 14.1%
Activity (MG-63 [15]): 0.4%
viability at 10 µM (MG-63 [16]): 86.1%
Activity (MG-63 [17]): 5%
Activity (MG-63 [18]): 8.1%
Activity (MG-63 [19]): 0.8%
viability at 10 µM (MG-63 [20]): 73.1%
Activity (MG-63 [21]): 3.1%
Activity (MG-63 [22]): 23.5%
Activity (MG-63 [23]): 0.3%
Activity (MG-63 [24]): Dose-dependent effect
Activity (MG-63 [25]): Tde
